Source: patent US20070092551A1, “Therapeutic agent” (TAKARA BIO INC., priority 2003, published 2007)

Tests used:
[1] = test system: mature adipocytes (3T3-L1 cells); test: Synergistic action of 4-hydroxyderricin and insulin to enhance glucose uptake; format: cell-based
Protocol: As the evaluation of synergistic action of 4-hydroxyderricin prepared in Example 2 and a low-concentration insulin to enhance glucose uptake, the amount of 2-deoxyglucose uptake into mature adipocytes during the stimulation with the sample was determined partly in accordance with the method described in Example 83.
The mature adipocytes were prepared according to the method described in item (1) of Example 83.
After the termination of the culture, the medium was removed, and the cells were washed twice with a 0.1% (w/v) bovine serum albumin (manufactured by Sigma, A8022)-containing Dulbecco's modified Eagle's medium. Thereafter, 1 mL of the same medium containing a solution of 4-hydroxyderricin in dimethyl sulfoxide having a final concentration of 5 μM was added thereto. The cells were cultured overnight at 37° C. in the presence of 5% carbon dioxide gas. Here, a group without addition of 4-hydroxyderricin was set as a negative control. After the overnight culture, the cells were washed twice with a HEPES buffered saline (140 mM NaCl, 5 mM KCl, 2.5 mM MgSO4, 1 mM CaCl2, 20 mM HEPES-Na (pH 7.4)). The amount 0.9 mL of the same buffer containing 4-hydroxyderricin having a final concentration of 5 μM was added thereto. […] Thereafter, 2-deoxy-[1,2-^3H(N)]-glucose subjected to uptake into the adipocytes was determined in the same manner as the method described in item (2) of Example 83.

[2] = test system: mature adipocytes (3T3-L1 cells); test: Glucose uptake enhancement inhibited by cytochalasin B; format: cell-based
Protocol: The influence of cytochalasin B on 2-deoxyglucose uptake into matured adipocytes during the stimulation with the sample in the adipocytes was tested in accordance with the method shown in Example 83 on whether or not the enhancing action of 4-hydroxyderricin on glucose uptake shown in Example 83 is inhibited by cytochalasin B, which is an inhibitor of a glucose transporter.
Specifically, as a sample, a group with addition of a dimethyl sulfoxide solution of 4-hydroxyderricin so as to have a final concentration of 7.8 μM was set. Here, there were set a group without addition of the sample as a negative control and a group with addition of insulin so as to have a final concentration of 1 μg/mL as a positive control. Furthermore, there was set a group with addition of cytochalasin B (manufactured by nacalai tesque, 10435-81) to each group so as to have a final concentration of 40 μM in the same time as the time of addition of insulin. Thereafter, 2-deoxy-[1,2-^3H(N)]-glucose subjected to uptake into the adipocytes was determined in the same manner.

[3] = test system: type II diabetes model mice; test: Amelioration effects on diabetes of 4-hydroxyderricin (blood glucose level); format: in vivo; conditions: male KK-Ay mice
Protocol: Pathological amelioration effects of 4-hydroxyderricin were examined using type II diabetes model mice. Experiments were carried out with five male 12-week old KK-Ay mice (CLEA Japan, Inc.) per group. 4-Hydroxyderricin was suspended or dissolved in a 0.5% (w/v) carboxymethyl cellulose solution (CMC) so as to have a concentration of 4% (w/v), and the suspension or solution was forcibly orally administered to the mice once a day at 200 mg/kg for consecutive days. CMC was administered to each mice in the control group at 5 mL/kg in the same manner. On the day before the beginning of administration, on the fourth day and on the eighteenth day, blood was collected from the veins of mouse tails, and the blood glucose level was determined with a simple blood glucose meter, ACCU-CHEK Compact (Roche Diagnostics K.K.). […] Here, during the experimental period, no changes were found in body weight and general symptoms.

[4] = test system: type II diabetes model mice; test: Amelioration effects on diabetes of xanthoangelol (blood glucose level, serum insulin); format: in vivo; conditions: female KK-Ay mice
Protocol: Pathological amelioration effects of xanthoangelol were examined using type II diabetes model mice. Experiments were carried out with five female 12-week old KK-Ay mice (CLEA Japan, Inc.) per group. Xanthoangelol was suspended or dissolved in an olive oil so as to have a concentration of 4% (w/v), and the suspension or solution was forcibly orally administered to the mice once a day at 200 mg/kg for consecutive days. The olive oil was administered to mice in the control group at 5 mL/kg in the same manner. On the day before the beginning of administration, on the fourth day and on the twenty-second day, the blood glucose level was determined in the same manner as in Example 88. In addition, on the twenty-second day, blood was simultaneously collected from abdominal cava, and the insulin concentration in serum was determined with Lebis Insulin Kit (Shibayagi Co., Ltd.). […] During the experimental period, no changes were found in body weight and general symptoms.

[5] = 200 mg/kg oral once a day in CMC, mean ± standard error
[6] = 200 mg/kg oral once a day, experimental period
[7] = 200 mg/kg oral once a day in olive oil, mean ± standard error

SMILES	2-deoxy-[1,2-3H(N)]-glucose uptake on addition simultaneously with insulin ([1]; 4-hydroxyderricin 5 μM + insulin 0.01 μg/mL, versus each alone)	2-deoxy-[1,2-3H(N)]-glucose uptake ([1]; 4-hydroxyderricin 5 μM alone, compared to the negative control)	2-deoxy-[1,2-3H(N)]-glucose uptake ([2]; 4-hydroxyderricin 7.8 μM, compared to the negative control)	2-deoxy-[1,2-3H(N)]-glucose uptake on addition of cytochalasin B ([2]; cytochalasin B 40 μM added to the 4-hydroxyderricin 7.8 μM, insulin 1 μg/mL and negative control groups)	blood glucose level (in words) ([3]; 200 mg/kg oral once a day)	Blood Glucose Level, Eighteenth Day [3, 5] [mg/dL]	Blood Glucose Level, Fourth Day [3, 5] [mg/dL]	changes in body weight and general symptoms [3, 6]	Blood Glucose Level, Previous Day ([3]; day before beginning of administration, 200 mg/kg oral once a day in CMC, mean ± standard error) [mg/dL]	action of ameliorating insulin resistance ([4]; 200 mg/kg oral once a day)	blood glucose level and insulin concentration (in words) ([4]; 200 mg/kg oral once a day)	Blood Glucose Level, Fourth Day [4, 7] [mg/dL]	Blood Glucose Level, Twenty-second Day [4, 7] [mg/dL]	changes in body weight and general symptoms [4, 6]	Blood Glucose Level, Previous Day ([4]; day before beginning of administration, 200 mg/kg oral once a day in olive oil, mean ± standard error) [mg/dL]	Insulin (concentration in serum) ([4]; twenty-second day, 200 mg/kg oral once a day in olive oil, mean ± standard error) [ng/mL]
COc1ccc(C(=O)/C=C/c2ccc(O)cc2)c(O)c1CC=C(C)C [4-Hydroxyderricin, 4,2′-Dihydroxy-3′-prenyl-4′-methoxychalcone]	synergistically increasing the enhancing activity on glucose uptake	enhancement of 2-deoxy-[1,2-^3H(N)]-glucose uptake	enhancement of 2-deoxy-[1,2-^3H(N)]-glucose uptake	almost completely inhibited	lowered	191 ± 10	187 ± 9	no changes	262 ± 14							
CC(C)=CCC/C(C)=C/Cc1c(O)ccc(C(=O)/C=C/c2ccc(O)cc2)c1O [Xanthoangelol, 4,2′,4′-Trihydroxy-3′-geranylchalcone]										action of ameliorating insulin resistance was found	lowered	192 ± 16	209 ± 8	no changes	249 ± 13	31 ± 7
